Data reported in patent US20250325699A1, “POLYPEPTIDES AND METHODS OF USE” (Aldevron, LLC, priority 2022, published 2025).

Tested on: HepG2 cells
Test: In vitro transfection of HepG2 cells, normalized luciferase activity
Assay type: cell-based
Conditions: 48 hours
Method: FIGS. 4A and 4B are graphs showing normalized luciferase activity in HepG2 cells 48 hours after in vitro transfection. Lipid nanoparticles were formed with RALA-NLS polypeptides and 250 ng or 500 ng C3-fLuc1157 DNA at a molar ratio of 700, 1400, 2100, or 2800. […]
FIGS. 4A and 4B are graphs showing normalized luciferase activity in HepG2 cells 48 hours after in vitro transfection. Lipid nanoparticles were formed with RALA-NLS polypeptides and 250 ng or 500 ng C^3-fLuc1157 DNA at a molar ratio of 700, 1400, 2100, or 2800.

Question: Which results are given for “WEARLARALARALARHLARALARALRACEAPKKKRKV [RALA-NLS]”?
Answer: transfection efficiency in slightly cationic LNPs (20% DOTAP) (FIG. 4B (20% DOTAP) versus FIG. 4A (DOPE)): more pronounced; transfection with higher amounts of DNA (500 ng) as compared to lower amounts (250 ng) (FIGS. 4A and 4B): more efficient transfection; transfection improvement compared to LNP without polypeptide (LNP with 700× polypeptide (molar ratio to C^3-fLuc1157 DNA)): ~20 fold; transfection improvement compared to LNP without polypeptide (LNP with 1400× polypeptide (molar ratio to C^3-fLuc1157 DNA)): ~35 fold; transfection improvement compared to LNP without polypeptide (LNP with 2100× polypeptide (molar ratio to C^3-fLuc1157 DNA)): ~50 fold; transfection improvement compared to LNP without polypeptide (LNP with 2800× polypeptide (molar ratio to C^3-fLuc1157 DNA)): ~65 fold
